Reference: publication PMC2864571 (2010)
Read-outs that look alike come from different tables or passages of the source.

Experiments:
[1] = system: SAM-Chlorobi RNA (longest construct) (RNA, mRNA element) GGAUUUUCCGGCAUCCCCAUUACCUAUGGACACGGUGCCAAAAGCUCUCUUGCGGGAGUUGUCCCCGGAGCUUGCCGAAAGGUUUCCCGUGUCCCGUUUGUCCCUCCGCGACAUUCACCUUCACGAGAAAACCGCAUCGGCAAACCGCCGGACACCUGCCGUUCUUGUCGUUCGAUUAACAAAAAACCGAAAGGGAAACUA; experiment: in-line probing; conditions: 1 mM tested; preliminary analysis
[2] = system: SK209-52 RNA (RNA, riboswitch, extra 5' G residues added for transcription (asterisks in Figure 1b)) GGUACCUGUCACAACGGCUUCCUGGCGUGACGAGGUGACCUCAGUGGAGCAA; experiment: in-line probing
[3] = system: SAM-Chlorobi RNA (second construct, shorter 3' end) (RNA, mRNA element) GGAUUUUCCGGCAUCCCCAUUACCUAUGGACACGGUGCCAAAAGCUCUCUUGCGGGAGUUGUCCCCGGAGCUUGCCGAAAGGUUUCCCGUGUCCCGUUUGUCCC; experiment: in-line probing; conditions: 1 mM tested; preliminary analysis
[4] = system: SAM-Chlorobi RNA (third construct, shorter 3' end) (RNA, mRNA element) GGAUUUUCCGGCAUCCCCAUUACCUAUGGACACGGUGCCAAAAGCUCUCUUGCGGGAGUUGUCCCCGGAGCUUGCCGAAAGGUUUCC; experiment: in-line probing; conditions: 1 mM tested; preliminary analysis
[5] = system: SAM-Chlorobi RNA (fourth construct, shortest 3' end) (RNA, mRNA element) GGAUUUUCCGGCAUCCCCAUUACCUAUGGACACGGUGCCAAAAGCUCUCUUGCGGGAGUU; experiment: in-line probing; conditions: 1 mM tested; preliminary analysis
[6] = system: pfl RNA (RNA, riboswitch) GGUAAAAUAAGAAAAUCAUGCAACUGGCGGAAAUGGAGUUCACCAUAGGGAGCAUGAUUAAUAUAAGAAUCGACCGCCUGGGUAAAUUAAUA; experiment: RNase T1 and V1 protection assay; conditions: PRPP unstable; 1 mM in in-line probing list

binding [1]	KD ([2]; SAM samples contain some SAH from spontaneous demethylation, apparent)	binding [3]	binding [4]	binding [5]	KD [2]	binding [6]	Compound
no	~ 8.6 μM	no	no	no	–	–	C[S+](CC[C@H](N)C(=O)O)C[C@H]1O[C@@H](n2cnc3c(N)ncnc32)[C@H](O)[C@@H]1O (some centres unmarked)
no	–	no	no	no	~ 4.3 μM	–	Nc1ncnc2c1ncn2[C@@H]1O[C@H](CSCC[C@H](N)C(=O)O)[C@@H](O)[C@H]1O
–	–	–	–	–	–	no	O=P(O)(O)OC[C@H]1O[C@H](OP(=O)(O)OP(=O)(O)O)[C@H](O)[C@@H]1O
